Columns and labels:
HeLa = assay: Antiproliferative activity against human HeLa cells after 72 hrs by MTT assay; type: functional, cell-based
K562 = assay: Antiproliferative activity against human K562 cells after 72 hrs by MTT assay; type: functional, cell-based; settings: K562, 72 h
MRC5 = assay: Antiproliferative activity against human MRC5 cells after 72 hrs by MTT assay; type: cell-based; settings: MRC5, 72 h
Jurkat = assay: Antiproliferative activity against human Jurkat cells after 72 hrs by MTT assay; type: functional, cell-based
HL-60 = assay: Antiproliferative activity against human HL60 cells after 72 hrs by MTT assay; type: functional, cell-based; settings: HL-60, 72 h

| IC50 (HeLa) | IC50 (K562) | IC50 (Jurkat) | IC50 (HL-60) | Structure (SMILES) | IC50 (MRC5) |
| --- | --- | --- | --- | --- | --- |
| 0.17 µM | 0.04 µM | > 100 µM | 25.9 µM | CCCCCCCCCCCC[C@@H](O)[C@H]1CCC(=O)O1 | > 100 µM |
| 21.4 µM | 0.13 µM | 3.01 µM | 0.15 µM | CCCCCCCCCCOC[C@@H](O)[C@H]1CCC(=O)O1 | > 100 µM |
| 0.3 µM | 1.25 µM | > 100 µM | 0.14 µM | CCCCCCCCCCOC[C@@H]1O[C@H]2CC(=O)O[C@H]2[C@@H]1O | > 100 µM |
| 9.59 µM | 8.61 µM | 6.64 µM | 1.53 µM | CCCCCCCCCOC[C@@H]1O[C@H]2CC(=O)O[C@H]2[C@@H]1O | > 100 µM |
